From patent publication US20240090503A1, “FUNGICIDAL OXADIAZOLES AND THEIR MIXTURES” (FMC CORPORATION, priority 2020, published 2024)
Marks after values point to notes of the source that are not given here.

Assays:
Type in all cases: in vivo
[1] = tested on: Phakopsora pachyrhizi (the causal agent of Asian soybean rust); assay: Test A: preventive spray on soybean seedlings, Asian soybean rust, visual disease rating; conditions: soybean seedlings
How it was run: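 Preventive test: soybean seedlings received a run-off spray of compound suspended at the set ppm in 50/50 acetone/water plus 250 ppm PEG400, and one day later a P. pachyrhizi spore inoculum. Visual scoring (0 none to 100 full disease control) followed 24 h saturated incubation and 8 days' growth chamber, both at 22° C.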

[2] = tested on: Puccinia recondita f. sp. tritici (the causal agent of wheat leaf rust); assay: Test C: preventive spray on wheat seedlings, wheat leaf rust, visual disease rating; conditions: wheat seedlings
How it was run: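 Wheat seedlings sprayed to run-off with compound in acetone/water (50/50) with 250 ppm PEG400, then inoculated with spores the following day. After 24 h saturated humidity at 20° C. and 6 days in growth chamber at 20° C., disease rated visually as % control relative to untreated controls.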

[3] = tested on: Zymoseptoria tritici (the causal agent of wheat leaf blotch); assay: Test B: preventive spray on wheat seedlings, wheat leaf blotch, visual disease rating; conditions: wheat seedlings
How it was run: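 This is a preventive test: spray application preceded Zymoseptoria tritici spore inoculation by one day. Test suspensions were in acetone/water with 250 ppm PEG400 surfactant, at the listed ppm rate. After 48 h saturated humidity at 24° C and 17 days at 20° C, visual ratings scored control from 0 to 100%.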

[4] = test suspension 10 ppm, 100 = 100% disease control, 0 = no control
[5] = 10 ppm test suspension, 100 = 100% disease control, 0 = no control
[6] = 250 ppm test suspension, 100 = 100% disease control

CCOC(=O)c1cnn(CCn2nc(-c3noc(C(F)(F)F)n3)ccc2=O)c1 [compound 347]
Test A disease control rating [1, 4]: 0% | Test C disease control rating ([2]; test suspension 10 ppm): 0% | Test B disease control rating ([3]; test suspension 250 ppm): 0* %

CC(C)OC(=O)c1cnn(Cc2ccc(-c3noc(C(F)(F)F)n3)cc2)c1 [compound 58]
Test A disease control rating [1, 4]: 100% | Test C disease control rating ([2]; test suspension 10 ppm): 100% | Test B disease control rating ([3]; test suspension 100 ppm (** next to rating)): 83** %

COC(=O)c1cnc(Oc2ccc(-c3noc(C(F)(F)F)n3)cc2)s1 [compound 452]
Test A disease control rating [1, 5]: 81% | Test C disease control rating [2, 5]: 0% | Test B disease control rating [3, 6]: 59* %

CCNC(=O)c1coc(Cc2ccc(-c3noc(C(F)(F)F)n3)cc2)n1 [compound 280]
Test A disease control rating [1, 4]: 100% | Test C disease control rating ([2]; test suspension 10 ppm): 99% | Test B disease control rating ([3]; test suspension 250 ppm): 99* %

N#CCNC(=O)c1coc(COc2ccc(-c3noc(C(F)(F)F)n3)cc2)n1 [compound 468]
Test A disease control rating [1, 5]: 84% | Test C disease control rating [2, 5]: 0% | Test B disease control rating [3, 6]: 22* %

COCC(COC)NC(=O)c1csc(Cc2ccc(-c3noc(C(F)(F)F)n3)cc2)n1 [compound 489]
Test A disease control rating [1, 5]: 100% | Test C disease control rating [2, 5]: 99% | Test B disease control rating [3, 6]: 92* %

O=C(O)c1csc(Cc2ccc(-c3noc(C(F)(F)F)n3)cc2)n1 [compound 345]
Test A disease control rating [1, 4]: 96% | Test C disease control rating ([2]; test suspension 10 ppm): 68% | Test B disease control rating ([3]; test suspension 250 ppm): 50* %

CC(C)c1nn(Cc2ccc(-c3noc(C(F)(F)F)n3)cc2)c(=O)n1C [compound 237]
Test A disease control rating ([1]; test suspension 250 ppm): 100% | Test C disease control rating ([2]; test suspension 250 ppm): 100% | Test B disease control rating ([3]; test suspension 250 ppm): 94%

FC(F)(F)c1nc(-c2ccc(OCc3nc4ccccc4o3)cc2)no1 [compound 355]
Test A disease control rating [1, 4]: 0% | Test C disease control rating ([2]; test suspension 10 ppm): 0% | Test B disease control rating ([3]; test suspension 250 ppm): 4* %

NC(=O)c1csc(Cc2ccc(-c3noc(C(F)(F)F)n3)cc2)n1 [compound 343]
Test A disease control rating [1, 4]: 100% | Test C disease control rating ([2]; test suspension 10 ppm): 100% | Test B disease control rating ([3]; test suspension 250 ppm): 97* %

O=C(O)CON=Cc1cnn(Cc2ccc(-c3noc(C(F)(F)F)n3)cc2)c1 [compound 26]
Test A disease control rating ([1]; test suspension 250 ppm): 100% | Test C disease control rating ([2]; test suspension 250 ppm): 100% | Test B disease control rating ([3]; test suspension 250 ppm): 46* %

CCNC(=O)c1ccc(COc2ccc(-c3noc(C(F)(F)F)n3)cc2)s1 [compound 352]
Test A disease control rating [1, 4]: 87% | Test C disease control rating ([2]; test suspension 10 ppm): 68% | Test B disease control rating ([3]; test suspension 250 ppm): 0* %

CN(C)N=Cc1cnn(Cc2ccc(-c3noc(C(F)(F)F)n3)cc2)c1 [compound 19]
Test A disease control rating ([1]; test suspension 250 ppm): 100% | Test C disease control rating ([2]; test suspension 250 ppm): 100% | Test B disease control rating ([3]; test suspension 250 ppm): 100%

FC(F)(F)c1nc(-c2ccc(Cc3ccccc3)cc2)no1 [compound 451]
Test A disease control rating [1, 5]: 99% | Test C disease control rating [2, 5]: 0% | Test B disease control rating [3, 6]: 8* %

CCN(CC)C(=O)c1coc(Cc2ccc(-c3noc(C(F)(F)F)n3)cc2)n1 [compound 262]
Test A disease control rating [1, 4]: 100% | Test C disease control rating ([2]; test suspension 10 ppm): 98% | Test B disease control rating ([3]; test suspension 250 ppm): 96* %

O=c1cc(-c2noc(C(F)(F)F)n2)ccn1Cc1ccccc1F [compound 232]
pest or weed control at 250 µg/mL ([1]; Phakopsora pachyrhizi, 216 h, test suspension 250 ppm): 100% | pest or weed control at 250 µg/mL ([2]; Puccinia recondita, 168 h, test suspension 250 ppm): 100% | pest or weed control at 250 µg/mL ([3]; Zymoseptoria tritici, 456 h, test suspension 250 ppm): 68%

Cn1ccc(CNC(=O)c2coc(Cc3ccc(-c4noc(C(F)(F)F)n4)cc3)n2)n1 [compound 265]
Test A disease control rating [1, 4]: 100% | Test C disease control rating ([2]; test suspension 10 ppm): 100% | Test B disease control rating ([3]; test suspension 250 ppm): 93* %

N#CCNC(=O)c1cnn(COc2ccc(-c3noc(C(F)(F)F)n3)cc2)c1 [compound 214]
Test A disease control rating [1, 4]: 100% | Test C disease control rating ([2]; test suspension 10 ppm): 74% | Test B disease control rating ([3]; test suspension 250 ppm): 73* %

O=C(NCC(F)(F)F)c1coc(COc2ccc(-c3noc(C(F)(F)F)n3)cc2)n1 [compound 465]
Test A disease control rating [1, 5]: 100% | Test C disease control rating [2, 5]: 80% | Test B disease control rating [3, 6]: 0* %

Cn1c(C(F)(F)F)nn(CCCc2ccc(-c3noc(C(F)(F)F)n3)cc2)c1=O [compound 240]
Test A disease control rating ([1]; test suspension 250 ppm): 100% | Test C disease control rating ([2]; test suspension 250 ppm): 100% | Test B disease control rating ([3]; test suspension 250 ppm): 4%

CCOC(=O)C1CCN(Cc2ccc(-c3noc(C(F)(F)F)n3)cc2)C1 (stereo not drawn) [compound 124]
Test A disease control rating ([1]; test suspension 260 ppm): 100% | Test C disease control rating ([2]; test suspension 260 ppm): 100% | Test B disease control rating ([3]; test suspension 260 ppm): 50%

FC(F)(F)c1nc(-c2ccc(Cn3cc4cc(Br)ccc4n3)cc2)no1 [compound 133]
Test A disease control rating ([1]; test suspension 255 ppm): 100% | Test C disease control rating ([2]; test suspension 255 ppm): 100% | Test B disease control rating ([3]; test suspension 255 ppm): 59%

N#Cc1ccc2ccn(Cc3ccc(-c4noc(C(F)(F)F)n4)cc3)c2c1 [compound 88]
Test A disease control rating ([1]; test suspension 250 ppm): 100% | Test C disease control rating ([2]; test suspension 250 ppm): 100% | Test B disease control rating ([3]; test suspension 250 ppm): 93%

CN(C)N1C(=O)C(Cl)=C(Oc2ccc(-c3noc(C(F)(F)F)n3)cc2)C1=O [compound 356]
Test A disease control rating ([1]; test suspension 250 ppm): 99% | Test C disease control rating ([2]; test suspension 250 ppm): 94% | Test B disease control rating ([3]; test suspension 250 ppm): 96* %

FC(F)(F)c1nc(-c2ccc(Cn3ncc4cc(Br)ccc43)cc2)no1 [compound 128]
Test A disease control rating ([1]; test suspension 255 ppm): 100% | Test C disease control rating ([2]; test suspension 255 ppm): 100% | Test B disease control rating ([3]; test suspension 255 ppm): 19%

O=C(NCC(F)(F)F)c1csc(Cc2ccc(-c3noc(C(F)(F)F)n3)cc2)c1 [compound 286]
Test A disease control rating [1, 4]: 100% | Test C disease control rating ([2]; test suspension 10 ppm): 100% | Test B disease control rating ([3]; test suspension 250 ppm): 3* %

FC(F)(F)c1nc(-c2ccc(Cn3ncc4cc(Cl)ccc43)cc2)no1 [compound 119]
Test A disease control rating ([1]; test suspension 265 ppm): 100% | Test C disease control rating ([2]; test suspension 265 ppm): 100% | Test B disease control rating ([3]; test suspension 265 ppm): 54%

CCOC(=O)c1cn(Cc2ccc(-c3noc(C(F)(F)F)n3)cc2)nc1C(F)(F)F [compound 111]
Test A disease control rating ([1]; test suspension 255 ppm): 100% | Test C disease control rating ([2]; test suspension 255 ppm): 86% | Test B disease control rating ([3]; test suspension 255 ppm): 0%

O=S1(=O)CCCCN1Cc1ccc(-c2noc(C(F)(F)F)n2)s1 [compound 323]
Test A disease control rating ([1]; test suspension 250 ppm): 100% | Test C disease control rating ([2]; test suspension 250 ppm): 100% | Test B disease control rating ([3]; test suspension 250 ppm): 92* %

COCCNC(=O)c1coc(Cc2ccc(-c3noc(C(F)(F)F)n3)cc2)c1 [compound 292]
Test A disease control rating [1, 4]: 100% | Test C disease control rating ([2]; test suspension 10 ppm): 85% | Test B disease control rating ([3]; test suspension 250 ppm): 96* %

N#CCNC(=O)c1csc(Cc2ccc(-c3noc(C(F)(F)F)n3)cc2)n1 [compound 393]
Test A disease control rating [1, 5]: 100% | Test C disease control rating [2, 5]: 100% | Test B disease control rating [3, 6]: 94* %

CN(C)C(=O)C1=NOC(Cc2ccc(-c3noc(C(F)(F)F)n3)cc2)C1 (stereo not drawn) [Compound 12, 4,5-dihydro-N,N-dimethyl-5-[[4-[5-(trifluoromethyl)-1,2,4-oxadiazol-3-yl]phenyl]methyl]-3-isoxazolecarboxamide]
pest or weed control at 255 µg/mL ([1]; Phakopsora pachyrhizi, 216 h, test suspension 255 ppm): 100% | pest or weed control at 255 µg/mL ([2]; Puccinia recondita, 168 h, test suspension 255 ppm): 100% | pest or weed control at 255 µg/mL ([3]; Zymoseptoria tritici, 456 h, test suspension 255 ppm): 98%

COC(=O)c1nncn1Cc1ccc(-c2noc(C(F)(F)F)n2)cc1 [compound 138]
Test A disease control rating ([1]; test suspension 260 ppm): 100% | Test C disease control rating ([2]; test suspension 260 ppm): 100% | Test B disease control rating ([3]; test suspension 260 ppm): 96%

Fc1cccc2c1cnn2Cc1ccc(-c2noc(C(F)(F)F)n2)cc1 [compound 125]
Test A disease control rating ([1]; test suspension 260 ppm): 100% | Test C disease control rating ([2]; test suspension 260 ppm): 100% | Test B disease control rating ([3]; test suspension 260 ppm): 55%

FC(F)(F)c1nc(-c2ccc(Cn3nc(Cl)c4ccccc43)cc2)no1 [compound 116]
Test A disease control rating ([1]; test suspension 265 ppm): 100% | Test C disease control rating ([2]; test suspension 265 ppm): 99% | Test B disease control rating ([3]; test suspension 265 ppm): 25%

FC(F)(F)c1nc(-c2ccc(OCn3cncn3)cc2)no1 [Compound 337]
Test A disease control rating [1, 4]: 99% | Test C disease control rating ([2]; test suspension 10 ppm): 82% | Test B disease control rating ([3]; test suspension 250 ppm): 78* %

CCOC(=O)c1csc(Cc2ccc(-c3noc(C(F)(F)F)n3)cc2)n1 [compound 344]
Test A disease control rating [1, 4]: 100% | Test C disease control rating ([2]; test suspension 10 ppm): 93% | Test B disease control rating ([3]; test suspension 250 ppm): 96* %

O=C(NCC1CC1)c1csc(Cc2ccc(-c3noc(C(F)(F)F)n3)s2)n1 [compound 202]
Test A disease control rating ([1]; test suspension 250 ppm): 100% | Test C disease control rating ([2]; test suspension 250 ppm): 100% | Test B disease control rating ([3]; test suspension 250 ppm): 83%

Cn1c(C(F)(F)F)nn(CCc2ccc(-c3noc(C(F)(F)F)n3)cc2)c1=O [compound 239]
Test A disease control rating ([1]; test suspension 250 ppm): 100% | Test C disease control rating ([2]; test suspension 250 ppm): 100% | Test B disease control rating ([3]; test suspension 250 ppm): 0%

O=C(O)c1coc(Cc2ccc(-c3noc(C(F)(F)F)n3)cc2)n1 [compound 253]
Test A disease control rating [1, 4]: 98% | Test C disease control rating ([2]; test suspension 10 ppm): 74% | Test B disease control rating ([3]; test suspension 250 ppm): 46* %

O=C(NCCCC(F)(F)F)c1coc(Cc2ccc(-c3noc(C(F)(F)F)n3)cc2)n1 [compound 398]
Test A disease control rating [1, 5]: 100% | Test C disease control rating [2, 5]: 97% | Test B disease control rating [3, 6]: 80* %
